Key:
[1] = test system: MMP-9; test: TNFα-induced MMP-9 production of U937 monocytes (ELISA of conditioned media); type: cell-based, Human; conditions: for MMP-9 production, Average: U937 cells, 24 hours, conditioned media ELISA
Experimental: U937 cells and RPMI 1640 culture medium were obtained from ATCC. Human MMP-9 ELISA Kit (QUANTIKINE) was obtained from R&D Systems. Fetal Bovine Serum (FBS) was obtained from VWR, and the penicillin-streptomycin solution and Tumor Necrosis Factor α (TNFα) were obtained from Sigma.
Human leukemia U937 monocyte lymphoma cells were cultured in RPMI 1640 medium supplemented with 10% FBS and 1% Penicillin-Streptomycin solution. Cells were incubated at 37° C. in a humidified atmosphere containing 5% CO2 and 95% air. Before treatment, cells were transferred into RPMI containing 1% FBS for overnight. Cells were plated on a 48 well plate. Cell culture medium included either TNFα (250 ng/mL), Triclosan(1 ppm), or both agents together or no agent (control). Cells were incubated after treatment for 24 hours. Conditioned media were collected and store at −80° C. until analysis. Samples of conditioned media were subjected to enzyme-linked immunosorbent assays (ELISA) for MMP-9, according to commercial ELISA protocol (FIG. 1).

[2] = test system: MMP-13; test: PTH-induced MMP-13 expression in UMR 106-01 osteoblast cells (real time quantitative RT-PCR); type: cell-based, Rat
Experimental: Parathyroid hormone (rat PTH 1-34) was purchased from Sigma. UMR 106-01 cells were cultured in Eagle's minimal essential medium (EMEM) supplemented with 25 mM Hepes pH 7.4, 1% nonessential amino acids, 100 units/rill penicillin, 100 μg/ml streptomycin. 5% fetal bovine serum. Real Time Quantitative RT-PCR was conducted according to the following method: UMR 106-01 cells were seeded in 12-well plates and cultured for 2-3 days in cell culture media. When cells were confluent, cell culture media was exchanged with 1% fetal bovine serum for overnight for cell starvation. Cells were pre-incubated with triclosan or a triclosan-containing dentifrice (see. e.g., U.S. Pat. Nos. 4,894,220, 5,032,386, and related patents) for 15 min and then incubated with PTH (10^−8 M) for 4 hours.
Total RNA was isolated from UMR 106-01 cells stimulated with or without PTH with TRIzol reagent. Total RNA (0.1 μg) was reverse-transcribed to cDNA using the Invitrogen SUPERSCRIPT kit according to the manufacturer's instructions. All cDNAs were amplified by adding 2.5 μl of cDNA to the PCR mixture (22.5 μl) containing each primer (0.2 μM) and 12.5 μl of the Platinum SYBR Green qPCR SuperMix UDG (Invitrogen). The reactions were preincubated at 50° C. for 2 minutes to decontaminate dU-containing DNA by UDG, then at 95° C. for 2 minutes to inactivate UDG and activate Taq. The PCR program continued 49 cycles of denaturation at 95° C. for 15 seconds, annealing and elongation of the primers at 60° C. for 30 seconds. Relative quantification of gene expression was determined by using the 2-delta delta CT method where fold changes in gene expression are relative to control samples. All samples were normalized to β-actin.
All results were expressed as means±standard error (S.E.) of triplicate measurements with all experiments being repeated at least three times. Statistical analyses were carried out using the Student's t test.

[3] = with PEG 600, weight ratio of 25 triclosan:1 PEG 600, versus absence of polyethylene glycol; cited from earlier work

TNFα
MMP-9 production, Average ([1]; TNFα 250 ng/mL alone): 0.275 ng/mL

Oc1cc(Cl)ccc1Oc1ccc(Cl)cc1Cl [Triclosan, 2,4,4′-trichloro-2′-hydroxydiphenyl ether]
effect on MMP-9 level in TNFα stimulated U937 cells ([1]; Triclosan at 1 ppm): significantly reduced
MMP-9 production, Average ([1]; TNFα 250 ng/mL + Triclosan 1 ppm): 0.155 ng/mL
MMP-13 expression, Average (fold change relative to control, normalized to β-actin) ([2]; Triclosan 1 ppm + PTH 10^−8 M, 15 min pre-incubation, 4 hours): 35.38
MMP-13 expression, Average (fold change relative to control, normalized to β-actin) ([2]; Triclosan 1 ppm, without PTH): 0.4166
MMP-13 expression, Average (fold change relative to control, normalized to β-actin) ([2]; Triclosan 4 ppm + PTH 10^−8 M, 15 min pre-incubation, 4 hours): 10.56
MMP-13 expression, Average (fold change relative to control, normalized to β-actin) ([2]; Triclosan 4 ppm, without PTH): 1.424
MMP-13 expression, Average (fold change relative to control, normalized to β-actin) ([2]; Triclosan 10 ppm + PTH 10^−8 M, 15 min pre-incubation, 4 hours): 3.012
MMP-13 expression, Average (fold change relative to control, normalized to β-actin) ([2]; Triclosan 10 ppm, without PTH): 1.518
effect on MMP-13 expression in PTH stimulated UMR cells ([2]; Triclosan at 10 ppm, 4 ppm and 1 ppm): significantly reduced
factor by which antibacterial activity is reduced [3]: 10-20

From US8637266B2, “Anti bone-loss and anti attachment-loss effects of an oral composition” (Colgate-Palmolive Company, priority 2009, dated 2014)
